Measured values: patent publication US20090252778A1, “METHODS AND DEVICES FOR REDUCING TISSUE DAMAGE AFTER ISCHEMIC INJURY” (INNOVATIONAL HOLDINGS LLC., priority 2006, published 2009)

Test: in vitro cumulative release from dual drug stent
Assay type: physicochemical
Conditions: insulin and Pimecrolimus eluting stent
Experimental: FIG. 6a is a graph showing the in vitro cumulative release of insulin over time from a dual drug stent. FIG. 6b is a graph showing the in vitro cumulative release of pimecrolimus over time from a dual drug stent. A stent for eluting insulin and Pimecrolimus was made substantially according to the description in A above. The stent was loaded with a base region, an insulin drug region, and a Pimecrolimus cap region. The base contained PLGA and/or PEVA; the drug contained insulin 250 μg total drug load (TDL) and PLGA; and the cap contained PEVA, PLGA/PLA-PCL and Pimecrolimus 300 μg TDL, and 6 deposits of PLGA/PLA-PCL. FIGS. 6A and 6B show the release profile of the insulin and Pimecrolimus eluting stent, respectively, over time. As shown in FIG. 6A at least about 50% of the insulin is released in the first 48 hours.

| Molecule | release profile of Pimecrolimus (in vitro cumulative release) (Pimecrolimus 300 μg TDL in cap region, FIG. 6B) | insulin released (in vitro cumulative release) (insulin 250 μg TDL in PLGA, in the first 48 hours, FIG. 6A) |
| --- | --- | --- |
| CC[C@@H]1/C=C(\C)C[C@H](C)C[C@H](OC)[C@H]2O[C@@](O)(C(=O)C(=O)N3CCCC[C@H]3C(=O)O[C@H](/C(C)=C/[C@@H]3CC[C@H](Cl)[C@H](OC)C3)[C@H](C)[C@@H](O)CC1=O)[C@H](C)C[C@@H]2OC [Pimecrolimus] | high initial release rate followed by a slower prolonged release | – |
| insulin | – | at least 50% |
